Source: patent publication US20190209650A1, “METHOD TO IMPROVE THE EFFECTIVENESS OF ANTI-CANCER THERAPIES BY EXPOSING CANCER CELLS TO AN INFLAMMATORY STIMULUS PRIOR TO TREATMENT” (priority 2016, published 2019)

System: SW620 colorectal cancer cell line
Test: Flow cytometry of EpCAM positive cells and cancer stem cell (CD44+CD133-) subpopulation after incubation with cytokines
Type: cell-based, human
Conditions: for % Gated, R4 (CD44FITC, CD133 PE) / % Total, R4 (CD44FITC, CD133 PE): population R4 & R14 & R2 & R1; for % Gated, R5 (CD44FITC, CD133 PE) / % Total, R5 (CD44FITC, CD133 PE): population R5 & R14 & R2 & R1; for % Gated, R6 (CD44FITC, CD133 PE) / % Total, R6 (CD44FITC, CD133 PE): population R6 & R14 & R2 & R1; for % Gated, R7 Cancer Stem Cell (CSC) (CD44+CD133-) / % Total, R7 Cancer Stem Cell (CSC) (CD44+CD133-): population R7 & R14 & R2 & R1; for % Gated, R8 (CD44FITC, EpCAMefluor710) / % Total, R8 (CD44FITC, EpCAMefluor710): population R8 & R14 & R2 & R1; for % Gated, R9 EpCAM positive Cells (CD44FITC, EpCAMefluor710) / % Total, R9 EpCAM positive Cells (CD44FITC, EpCAMefluor710): population R9 & R14 & R2 & R1; for % Gated, R10 EpCAM positive Cells (CD44FITC, EpCAMefluor710) / % Total, R10 EpCAM positive Cells (CD44FITC, EpCAMefluor710): population R10 & R14 & R2 & R1; for % Gated, R11 (CD44FITC, EpCAMefluor710) / % Total, R11 (CD44FITC, EpCAMefluor710): population R11 & R14 & R2 & R1
Protocol: This number returned to near baseline 21% at 48 hours. […] This change was transient, occurring within 24 hours and rapidly returning to baseline.
The data from the scatter plots of FIGS. 1A-1H, 2A-2H, and 3A-3H are reproduced below in Tables 1-3.
Based on the above data of potentiating the effectiveness of chemotherapy by exposing cancer cells to specific cytokines such as HGF and or Il-6 within a time limited fashion, the mechanism behind this ability to sensitize cancer cells may not simply be triggering cellular proliferation. Specific cytokine exposures can transiently cause a cancer cell population to differentiate away from a more stem cell enriched, mesenchymal phenotype towards a more differentiated, epithelial cell population more sensitive to the effects of anti-cancer therapies (see Tables 1-3).
In particular, exposure to a control population of SW620 colorectal cancer cell line to HGF at a concentration of 10 ng per ml for 24 hours caused the control putative stem cell population (CD44+/CD133−) to drop from 33% at baseline (see Table 1, R7 region, CD 44 positive/CD133 negative) to 1% (see Table 2, R7, region CD 44 positive/CD133 negative). This drop was transient, as exposure to the same cell line for 48 hours of HGF at 10 ng per ml transitioned the phenotypic distribution back towards a stem cell enriched phenotype with 23% putative stem cells (see Table 3, R7 region, CD 44 positive/CD133 negative).

IL6: Interleukin 6, cytokine
% Gated, R4 (CD44FITC, CD133 PE) (0 hour incubation): 48.6%
% Total, R4 (CD44FITC, CD133 PE) (0 hour incubation): 45.1%
% Gated, R5 (CD44FITC, CD133 PE) (0 hour incubation): 3.48%
% Total, R5 (CD44FITC, CD133 PE) (0 hour incubation): 3.23%
% Gated, R6 (CD44FITC, CD133 PE) (0 hour incubation): 13.9%
% Total, R6 (CD44FITC, CD133 PE) (0 hour incubation): 12.9%
% Gated, R7 Cancer Stem Cell (CSC) (CD44+CD133-) (0 hour incubation): 34.2%
% Total, R7 Cancer Stem Cell (CSC) (CD44+CD133-) (0 hour incubation): 31.7%
% Gated, R8 (CD44FITC, EpCAMefluor710) (0 hour incubation): 5.15%
% Total, R8 (CD44FITC, EpCAMefluor710) (0 hour incubation): 4.78%
% Gated, R9 EpCAM positive Cells (CD44FITC, EpCAMefluor710) (0 hour incubation): 53%
% Total, R9 EpCAM positive Cells (CD44FITC, EpCAMefluor710) (0 hour incubation): 49.2%
% Gated, R10 EpCAM positive Cells (CD44FITC, EpCAMefluor710) (0 hour incubation): 39%
% Total, R10 EpCAM positive Cells (CD44FITC, EpCAMefluor710) (0 hour incubation): 36.1%
% Gated, R11 (CD44FITC, EpCAMefluor710) (0 hour incubation): 2.42%
% Total, R11 (CD44FITC, EpCAMefluor710) (0 hour incubation): 2.24%
% Gated, R4 (CD44FITC, CD133 PE) (24 h incubation): 41.1%
% Total, R4 (CD44FITC, CD133 PE) (24 h incubation): 33.4%
% Gated, R5 (CD44FITC, CD133 PE) (24 h incubation): 7.69%
% Total, R5 (CD44FITC, CD133 PE) (24 h incubation): 6.27%
% Gated, R6 (CD44FITC, CD133 PE) (24 h incubation): 28.8%
% Total, R6 (CD44FITC, CD133 PE) (24 h incubation): 23.4%
% Gated, R7 Cancer Stem Cell (CSC) (CD44+CD133-) (24 h incubation): 22.3%
% Total, R7 Cancer Stem Cell (CSC) (CD44+CD133-) (24 h incubation): 18.1%
% Gated, R8 (CD44FITC, EpCAMefluor710) (24 h incubation): 5.35%
% Total, R8 (CD44FITC, EpCAMefluor710) (24 h incubation): 4.36%
% Gated, R9 EpCAM positive Cells (CD44FITC, EpCAMefluor710) (24 h incubation): 48.4%
% Total, R9 EpCAM positive Cells (CD44FITC, EpCAMefluor710) (24 h incubation): 39.4%
% Gated, R10 EpCAM positive Cells (CD44FITC, EpCAMefluor710) (24 h incubation): 45.2%
% Total, R10 EpCAM positive Cells (CD44FITC, EpCAMefluor710) (24 h incubation): 36.8%
% Gated, R11 (CD44FITC, EpCAMefluor710) (24 h incubation): 1.94%
% Total, R11 (CD44FITC, EpCAMefluor710) (24 h incubation): 1.58%
% Gated, R4 (CD44FITC, CD133 PE) (48 h incubation): 37.5%
% Total, R4 (CD44FITC, CD133 PE) (48 h incubation): 33.7%
% Gated, R5 (CD44FITC, CD133 PE) (48 h incubation): 7.38%
% Total, R5 (CD44FITC, CD133 PE) (48 h incubation): 6.64%
% Gated, R6 (CD44FITC, CD133 PE) (48 h incubation): 30.7%
% Total, R6 (CD44FITC, CD133 PE) (48 h incubation): 27.6%
% Gated, R7 Cancer Stem Cell (CSC) (CD44+CD133-) (48 h incubation): 25.1%
% Total, R7 Cancer Stem Cell (CSC) (CD44+CD133-) (48 h incubation): 22.6%
% Gated, R8 (CD44FITC, EpCAMefluor710) (48 h incubation): 26%
% Total, R8 (CD44FITC, EpCAMefluor710) (48 h incubation): 23.4%
% Gated, R9 EpCAM positive Cells (CD44FITC, EpCAMefluor710) (48 h incubation): 27.6%
% Total, R9 EpCAM positive Cells (CD44FITC, EpCAMefluor710) (48 h incubation): 24.8%
% Gated, R10 EpCAM positive Cells (CD44FITC, EpCAMefluor710) (48 h incubation): 26%
% Total, R10 EpCAM positive Cells (CD44FITC, EpCAMefluor710) (48 h incubation): 23.3%
% Gated, R11 (CD44FITC, EpCAMefluor710) (48 h incubation): 21.4%
% Total, R11 (CD44FITC, EpCAMefluor710) (48 h incubation): 19.3%
